# Measurements taken from BindingDB's records for patent WO2025049746 (Eikon Therapeutics, 2025).
# Tests used:
# [1] = molecular target: Bifunctional 3'-5' exonuclease/ATP-dependent helicase WRN (Homo sapiens, UniProt Q14191); experiment: ADP-Glo Kinase Assay
# Experimental: ATPase activity was measured using the ADP-Glo Kinase Assay following the manufacturers recommended protocol.
# [2] = molecular target: T1, Bifunctional 3'-5' exonuclease/ATP-dependent helicase WRN [480-1251] (UniProt Q14191); experiment: Biochemical Activity Assays
# T1 construct: 480-1251
# T1 sequence (Q14191 480-1251): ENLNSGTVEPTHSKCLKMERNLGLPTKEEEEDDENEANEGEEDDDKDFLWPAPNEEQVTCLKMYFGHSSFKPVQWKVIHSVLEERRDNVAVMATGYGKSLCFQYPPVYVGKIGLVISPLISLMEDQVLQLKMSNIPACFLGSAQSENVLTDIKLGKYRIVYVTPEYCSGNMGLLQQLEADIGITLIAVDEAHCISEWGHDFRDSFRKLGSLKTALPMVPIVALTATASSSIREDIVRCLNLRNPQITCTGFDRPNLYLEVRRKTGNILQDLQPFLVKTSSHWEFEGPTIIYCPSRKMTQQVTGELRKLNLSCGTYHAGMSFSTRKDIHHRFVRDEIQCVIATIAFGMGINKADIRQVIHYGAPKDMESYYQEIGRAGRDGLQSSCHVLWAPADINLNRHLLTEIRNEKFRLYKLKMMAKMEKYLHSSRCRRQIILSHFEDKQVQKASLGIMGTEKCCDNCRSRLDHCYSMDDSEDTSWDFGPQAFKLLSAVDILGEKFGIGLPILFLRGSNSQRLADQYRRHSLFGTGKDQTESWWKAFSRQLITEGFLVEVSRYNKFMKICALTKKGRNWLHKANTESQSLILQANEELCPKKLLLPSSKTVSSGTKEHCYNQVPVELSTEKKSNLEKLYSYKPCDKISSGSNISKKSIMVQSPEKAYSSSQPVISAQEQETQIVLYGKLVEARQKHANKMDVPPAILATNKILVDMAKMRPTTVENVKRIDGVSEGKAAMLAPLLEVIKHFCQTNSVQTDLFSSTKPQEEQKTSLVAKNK
# Sequence of Bifunctional 3'-5' exonuclease/ATP-dependent helicase WRN (Q14191 whole entry): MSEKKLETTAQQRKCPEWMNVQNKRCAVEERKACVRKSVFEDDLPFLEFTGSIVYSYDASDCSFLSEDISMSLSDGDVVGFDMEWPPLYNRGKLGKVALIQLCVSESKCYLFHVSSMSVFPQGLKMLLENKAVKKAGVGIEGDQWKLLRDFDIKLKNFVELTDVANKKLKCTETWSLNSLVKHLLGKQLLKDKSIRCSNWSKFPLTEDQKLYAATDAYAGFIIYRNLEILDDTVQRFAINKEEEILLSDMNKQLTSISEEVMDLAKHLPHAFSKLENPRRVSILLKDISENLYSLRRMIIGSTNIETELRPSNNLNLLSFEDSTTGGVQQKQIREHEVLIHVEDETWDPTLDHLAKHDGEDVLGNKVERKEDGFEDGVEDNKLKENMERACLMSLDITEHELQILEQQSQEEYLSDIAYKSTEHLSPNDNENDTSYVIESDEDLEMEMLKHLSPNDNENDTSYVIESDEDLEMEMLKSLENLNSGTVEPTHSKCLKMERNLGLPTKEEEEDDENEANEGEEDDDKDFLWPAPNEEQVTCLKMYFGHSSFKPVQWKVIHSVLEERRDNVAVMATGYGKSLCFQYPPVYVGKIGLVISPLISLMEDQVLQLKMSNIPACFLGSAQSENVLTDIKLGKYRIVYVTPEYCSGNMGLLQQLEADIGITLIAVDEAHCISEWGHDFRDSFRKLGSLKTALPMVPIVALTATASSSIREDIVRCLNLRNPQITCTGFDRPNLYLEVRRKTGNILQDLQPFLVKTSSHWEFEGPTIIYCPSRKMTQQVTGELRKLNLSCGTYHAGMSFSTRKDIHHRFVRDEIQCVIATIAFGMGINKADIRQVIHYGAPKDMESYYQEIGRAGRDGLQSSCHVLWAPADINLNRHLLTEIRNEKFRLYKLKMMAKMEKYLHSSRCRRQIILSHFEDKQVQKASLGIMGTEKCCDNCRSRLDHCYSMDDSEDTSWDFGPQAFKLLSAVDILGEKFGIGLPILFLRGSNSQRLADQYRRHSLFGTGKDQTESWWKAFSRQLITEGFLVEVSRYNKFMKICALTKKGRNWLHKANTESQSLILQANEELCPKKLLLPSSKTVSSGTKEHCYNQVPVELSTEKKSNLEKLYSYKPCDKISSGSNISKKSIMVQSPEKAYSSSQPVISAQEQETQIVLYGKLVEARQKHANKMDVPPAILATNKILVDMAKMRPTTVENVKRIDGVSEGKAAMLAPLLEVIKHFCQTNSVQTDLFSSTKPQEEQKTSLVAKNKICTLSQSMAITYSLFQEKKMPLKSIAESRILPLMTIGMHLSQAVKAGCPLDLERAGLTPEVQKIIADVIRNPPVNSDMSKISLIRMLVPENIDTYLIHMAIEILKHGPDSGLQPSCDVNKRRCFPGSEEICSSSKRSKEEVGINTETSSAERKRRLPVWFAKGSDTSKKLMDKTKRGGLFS
IC50 [1] [nM],IC50 [2] [nM],SMILES
50,52,"CCc1c(N2CCN(C(=O)c3ncnc(C)c3O)CC2)c(=O)n2nc(-c3ccc4c(c3)CN(C)C4)nc2n1CC(=O)Nc1ccc(C(F)(F)F)cc1Cl [WO2025049746, Example 197]"
24,23,"CCc1c(N2CCN(C(=O)c3ncnc(C)c3O)CC2)c(=O)n2nc(-c3cc4c(cc3F)[C@@H](OC)CC4)nc2n1CC(=O)Nc1ccc(C(F)(F)F)cc1Cl [WO2025049746, Example 244]"
156,79.4,"CCc1c(N2CCN(C(=O)c3cccn4ccnc34)CC2)c(=O)n2nc(C3=CCOCC3)nc2n1CC(=O)Nc1ccc(C(F)(F)F)cc1Cl [WO2025049746, Example 50]"
21,22,"CCc1c(N2CCN(C(=O)c3ncnc(C)c3O)CC2)c(=O)n2nc(-c3ccn4nccc4c3C)nc2n1CC(=O)Nc1ccc(C(F)(F)F)cc1Cl [WO2025049746, Example 239]"
381,320,"CCc1c(N2CCN(C(=O)c3nc4n(c(=O)c3O)CCOC4)CC2)c(=O)n2nc(N3C[C@H]4COC[C@H]4C3)nc2n1CC(=O)Nc1ccc(C(F)(F)F)cc1Cl [WO2025049746, Example 93]"
2960,2300,"CCc1c(N2CCN(C(=O)c3ncnc(C)c3O)CC2)c(=O)n2nc(C3C4COCC43)nc2n1CC(=O)Nc1ccc(C(F)(F)F)c2c1CC2 (centres undefined) [WO2025049746, Example 382]"
44,40,"CCc1c(N2CCN(C(=O)c3ncnc4cc[nH]c34)CC2)c(=O)n2nc(-c3ccc4c(c3)COC4)nc2n1CC(=O)Nc1ccc(C(F)(F)F)cc1Cl [WO2025049746, Example 444]"
26,27,"CCc1c(N2CCN(C(=O)c3ncnc(C)c3O)CC2)c(=O)n2nc(-c3cnc4sccc4c3)nc2n1CC(=O)Nc1ccc(C(F)(F)F)cc1Cl [WO2025049746, Example 310]"
19,19,"CCc1c(N2CCN(C(=O)c3ncnc(C)c3O)CC2)c(=O)n2nc(-c3ccn4cncc4c3)nc2n1CC(=O)Nc1ccc(C(F)(F)F)cc1Cl [WO2025049746, Example 219]"
52,46,"CCc1c(N2CCN(C(=O)c3ncnc(C)c3O)CC2)c(=O)n2nc(-c3cc4n(n3)CCC4)nc2n1CC(=O)Nc1ccc(C(F)(F)F)cc1Cl [WO2025049746, Example 183]"
45.7,33,"CCc1c(N2CCN(C(=O)c3ccccc3NS(=O)(=O)C3CC3)CC2)c(=O)n2nc(C3=CCOCC3)nc2n1CC(=O)Nc1ccc(C(F)(F)F)cc1Cl [WO2025049746, Example 39]"
20,23,"CCc1c(N2CCN(C(=O)c3ncnc(C)c3O)CC2)c(=O)n2nc(-c3ccc4c(cnn4C)c3)nc2n1CC(=O)Nc1ccc(C(F)(F)F)cc1Cl [WO2025049746, Example 321]"
27.9,23,"CCc1c(N2CCN(C(=O)c3nccc4nc[nH]c34)CC2)c(=O)n2nc(-c3ccc4c(c3)CCOC4)nc2n1CC(=O)Nc1ccc(C(F)(F)F)cc1Cl [WO2025049746, Example 92]"
73.9,63.2,"CCc1c(N2CCN(C(=O)c3ncnc(C)c3O)CC2)c(=O)n2nc(N3CCC4(COC4)C3)nc2n1CC(=O)Nc1ccc(C(F)(F)F)cc1Cl [WO2025049746, Example 29]"
61,63,"CCc1c(N2CCN(C(=O)c3ncnc(C)c3O)CC2)c(=O)n2nc(-c3ccccc3C(=O)NC3CC3)nc2n1CC(=O)Nc1ccc(C(F)(F)F)cc1Cl [WO2025049746, Example 269]"
25,26,"CCc1c(N2CCN(C(=O)c3ncnc(C)c3O)CC2)c(=O)n2nc(-c3cc4c(cc3F)O[C@@H](C)C4)nc2n1CC(=O)Nc1ccc(C(F)(F)F)cc1Cl [WO2025049746, Example 249]"
83.5,33.4,"CCc1c(N2CCN(S(C)(=O)=O)CC2)c(=O)n2nc(C3=CCOCC3)nc2n1CC(=O)Nc1ccc(C(F)(F)F)cc1Cl [WO2025049746, Example 59]"
